Data as given in patent publication US20170233413A1, “SUBSTITUTED ANNULATED PYRIMIDINES AND USE THEREOF” (Bayer Pharma Aktiengesellschaft, priority 2014, published 2017).

Columns and labels:
[1] = target: T1, recombinant guanylate cyclase reporter cell line (Rattus norvegicus, UniProt P19686+P20595); test: Effect on a recombinant guanylate cyclase reporter cell line; type: cell-based; settings: MEC = minimum effective concentration; in some cases means of individual determinations
T1 construct: expressed in transfected cells
T1 sequence (P19686 1-690): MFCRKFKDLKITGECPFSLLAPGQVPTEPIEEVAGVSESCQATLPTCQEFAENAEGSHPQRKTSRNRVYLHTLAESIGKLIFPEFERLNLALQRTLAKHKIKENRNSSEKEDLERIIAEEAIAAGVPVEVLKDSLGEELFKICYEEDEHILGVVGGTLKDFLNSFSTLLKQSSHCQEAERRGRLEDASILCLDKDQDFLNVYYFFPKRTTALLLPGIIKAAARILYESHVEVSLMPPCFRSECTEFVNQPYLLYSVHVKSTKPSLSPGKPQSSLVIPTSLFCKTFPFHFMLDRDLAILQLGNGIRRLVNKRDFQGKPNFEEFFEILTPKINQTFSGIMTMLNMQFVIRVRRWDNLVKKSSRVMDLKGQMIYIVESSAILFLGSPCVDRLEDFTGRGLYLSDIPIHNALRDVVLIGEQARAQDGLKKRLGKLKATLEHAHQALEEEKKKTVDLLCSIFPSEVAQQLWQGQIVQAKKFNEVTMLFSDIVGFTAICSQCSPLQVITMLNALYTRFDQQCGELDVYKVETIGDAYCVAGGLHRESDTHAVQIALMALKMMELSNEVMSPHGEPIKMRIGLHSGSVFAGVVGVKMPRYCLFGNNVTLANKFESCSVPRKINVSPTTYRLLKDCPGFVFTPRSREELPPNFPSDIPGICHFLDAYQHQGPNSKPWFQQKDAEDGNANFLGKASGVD
T1 sequence (P20595 1-619): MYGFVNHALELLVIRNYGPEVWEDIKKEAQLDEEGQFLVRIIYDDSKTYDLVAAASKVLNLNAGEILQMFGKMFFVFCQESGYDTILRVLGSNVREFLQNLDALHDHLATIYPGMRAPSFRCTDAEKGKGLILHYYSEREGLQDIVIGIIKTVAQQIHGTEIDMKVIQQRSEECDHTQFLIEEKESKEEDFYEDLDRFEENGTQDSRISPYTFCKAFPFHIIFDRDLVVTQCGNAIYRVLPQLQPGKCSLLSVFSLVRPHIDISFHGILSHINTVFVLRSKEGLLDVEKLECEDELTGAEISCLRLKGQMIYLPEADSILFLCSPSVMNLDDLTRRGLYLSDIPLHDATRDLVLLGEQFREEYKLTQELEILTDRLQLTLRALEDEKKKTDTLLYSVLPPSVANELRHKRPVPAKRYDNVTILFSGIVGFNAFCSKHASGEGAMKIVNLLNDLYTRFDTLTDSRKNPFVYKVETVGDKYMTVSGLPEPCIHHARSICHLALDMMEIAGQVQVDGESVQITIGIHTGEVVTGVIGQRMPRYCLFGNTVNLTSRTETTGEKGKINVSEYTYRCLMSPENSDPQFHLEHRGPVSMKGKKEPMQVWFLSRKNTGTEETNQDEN
Method in brief: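 Cellular activity measured in a recombinant rat soluble guanylate cyclase reporter cell line. Values are minimum effective concentration (MEC), some given as means of individual determinations.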

[2] = target: T2, human phosphodiesterase 5 (PDE 5) (Homo sapiens, UniProt O76074); test: Inhibition of human phosphodiesterase 5 (PDE 5); type: biochemical; settings: PDE 5 preparation from human platelets; in some cases means of individual determinations
T2 construct: PDE 5 preparations are obtained from human platelets by disruption; from tissue; host or cells: human platelets
Method in brief: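 Enzyme partially purified from human platelets by Mono Q ion exchange, diluted so that under 70% of substrate converts. [8-3H]cGMP at 0.025 μCi per well in Tris pH 7.5 with MgCl2/EDTA, 60 min at room temperature, yttrium SPA bead read-out. Final compound concentrations 4–0.0018 μM; IC50 from concentration–inhibition plot.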

| MEC [1] [µM] | IC50 [2] [nM] | SMILES |
| --- | --- | --- |
| 1 | 91 | CCC(CC)CNC(=O)c1nc(-c2nn(Cc3ccccc3F)c3ncccc23)nc2c1C(C)(C)C(=O)N2 [Example 59, N-(2-Ethylbutyl)-2-[1-(2-fluorobenzyl)-1H-pyrazolo[3,4-b]pyridin-3-yl]-5,5-dimethyl-6-oxo-6,7-dihydro-5H-pyrrolo[2,3-d]pyrimidine-4-carboxamide] |
| 0.1 | 18 | C=CCONC(=O)c1nc(-c2nn(Cc3ccccc3F)c3ncccc23)nc2c1C(C)(C)C(=O)N2 [Example 62, 2-[1-(2-fluorobenzyl)-1H-pyrazolo[3,4-b]pyridin-3-yl]-5,5-dimethyl-6-oxo-N-(prop-2-en-1-yloxy)-6,7-dihydro-5H-pyrrolo[2,3-d]pyrimidine-4-carboxamide] |
| 0.3 | 170 | Cc1nnc(NC(=O)c2nc(-c3nn(Cc4ccccc4F)c4ncccc34)nc3c2C(C)(C)C(=O)N3)o1 [Example 71, 2-[1-(2-fluorobenzyl)-1H-pyrazolo[3,4-b]pyridin-3-yl]-5,5-dimethyl-N-(5-methyl-1,3,4-oxadiazol-2-yl)-6-oxo-6,7-dihydro-5H-pyrrolo[2,3-d]pyrimidine-4-carboxamide] |
| 1 | 46 | CC1(C)C(=O)Nc2nc(-c3nn(Cc4ccccc4F)c4ncccc34)nc(C(=O)Nc3nccs3)c21 [Example 72, 2-[1-(2-fluorobenzyl)-1H-pyrazolo[3,4-b]pyridin-3-yl]-5,5-dimethyl-6-oxo-N-(1,3-thiazol-2-yl)-6,7-dihydro-5H-pyrrolo[2,3-d]pyrimidine-4-carboxamide] |
| 0.1 | 26 | CC1(C)C(=O)Nc2nc(-c3nn(Cc4ccccc4F)c4ncccc34)nc(C(=O)NCCC(F)(F)F)c21 [Example 74, 2-[1-(2-fluorobenzyl)-1H-pyrazolo[3,4-b]pyridin-3-yl]-5,5-dimethyl-6-oxo-N-(3,3,3-trifluoropropyl)-6,7-dihydro-5H-pyrrolo[2,3-d]pyrimidine-4-carboxamide] |
| 0.1 | 15 | CCCNC(=O)c1nc(-c2nn(Cc3ccccc3F)c3ncccc23)nc2c1C(C)(C)C(=O)N2 [Example 81, 2-[1-(2-fluorobenzyl)-1H-pyrazolo[3,4-b]pyridin-3-yl]-5,5-dimethyl-6-oxo-N-propyl-6,7-dihydro-5H-pyrrolo[2,3-d]pyrimidine-4-carboxamide] |
| 0.1 | 13 | CC1(C)C(=O)Nc2nc(-c3nn(Cc4ccccc4F)c4ncccc34)nc(C(=O)NCCF)c21 [Example 83, 2-[1-(2-fluorobenzyl)-1H-pyrazolo[3,4-b]pyridin-3-yl]-N-(2-fluoroethyl)-5,5-dimethyl-6-oxo-6,7-dihydro-5H-pyrrolo[2,3-d]pyrimidine-4-carboxamide] |

Second part, the compound before the results:

| SMILES | MEC [1] [µM] | IC50 [2] [nM] |
| --- | --- | --- |
| CN(C(=O)c1nc(-c2nn(Cc3ccccc3F)c3ncc(F)cc23)nc2c1C(C)(C)C(=O)N2)C1CC1 [Example 52] | 0.01 | 150 |
| CN(CC1CC1)C(=O)c1nc(-c2nn(Cc3ccccc3F)c3ncc(F)cc23)nc2c1C(C)(C)C(=O)N2 [Example 53] | 0.01 | 110 |
| CSCCCNC(=O)c1nc(-c2nn(Cc3ccccc3F)c3ncccc23)nc2c1C(C)(C)C(=O)N2 [Example 61, 2-[1-(2-fluorobenzyl)-1H-pyrazolo[3,4-b]pyridin-3-yl]-5,5-dimethyl-N-[3-(methylsulfanyl)propyl]-6-oxo-6,7-dihydro-5H-pyrrolo[2,3-d]pyrimidine-4-carboxamide] | 0.1 | 16 |
| C[S+]([O-])CCNC(=O)c1nc(-c2nn(Cc3ccccc3F)c3ncccc23)nc2c1C(C)(C)C(=O)N2 (stereo not shown) [Example 64, 2-[1-(2-fluorobenzyl)-1H-pyrazolo[3,4-b]pyridin-3-yl]-5,5-dimethyl-N-[2-(methylsulfinyl)ethyl]-6-oxo-6,7-dihydro-5H-pyrrolo[2,3-d]pyrimidine-4-carboxamide] | 1 | 74 |
| Cn1nccc1NC(=O)c1nc(-c2nn(Cc3ccccc3F)c3ncccc23)nc2c1C(C)(C)C(=O)N2 [Example 67, 2-[1-(2-fluorobenzyl)-1H-pyrazolo[3,4-b]pyridin-3-yl]-5,5-dimethyl-N-(1-methyl-1H-pyrazol-5-yl)-6-oxo-6,7-dihydro-5H-pyrrolo[2,3-d]pyrimidine-4-carboxamide] | 0.3 | 2.6 |
| CC1(C)C(=O)Nc2nc(-c3nn(Cc4ccccc4F)c4ncccc34)nc(C(=O)NCc3ccco3)c21 [Example 69, 2-[1-(2-fluorobenzyl)-1H-pyrazolo[3,4-b]pyridin-3-yl]-N-(furan-2-ylmethyl)-5,5-dimethyl-6-oxo-6,7-dihydro-5H-pyrrolo[2,3-d]pyrimidine-4-carboxamide] | 0.1 | 10 |
| Cn1ccc(NC(=O)c2nc(-c3nn(Cc4ccccc4F)c4ncccc34)nc3c2C(C)(C)C(=O)N3)n1 [Example 70, 2-[1-(2-fluorobenzyl)-1H-pyrazolo[3,4-b]pyridin-3-yl]-5,5-dimethyl-N-(1-methyl-1H-pyrazol-3-yl)-6-oxo-6,7-dihydro-5H-pyrrolo[2,3-d]pyrimidine-4-carboxamide] | 0.3 | 24 |
| CC1(C)C(=O)Nc2nc(-c3nn(Cc4ccccc4F)c4ncccc34)nc(C(=O)NCCSC(F)(F)F)c21 [Example 73, 2-[1-(2-fluorobenzyl)-1H-pyrazolo[3,4-b]pyridin-3-yl]-5,5-dimethyl-6-oxo-N-{2-[(trifluoromethyl)sulfanyl]ethyl}-6,7-dihydro-5H-pyrrolo[2,3-d]pyrimidine-4-carboxamide] | 0.3 | 52 |
| CC1(C)C(=O)Nc2nc(-c3nn(Cc4ccccc4F)c4ncccc34)nc(C(=O)Nc3cc(F)cc(F)c3)c21 [Example 76, N-(3,5-difluorophenyl)-2-[1-(2-fluorobenzyl)-1H-pyrazolo[3,4-b]pyridin-3-yl]-5,5-dimethyl-6-oxo-6,7-dihydro-5H-pyrrolo[2,3-d]pyrimidine-4-carboxamide] | 1 | 60 |
| CC1(C)C(=O)Nc2nc(-c3nn(Cc4ccccc4F)c4ncccc34)nc(C(=O)Nc3cc(F)c(F)c(F)c3)c21 [Example 77, 2-[1-(2-fluorobenzyl)-1H-pyrazolo[3,4-b]pyridin-3-yl]-5,5-dimethyl-6-oxo-N-(3,4,5-trifluorophenyl)-6,7-dihydro-5H-pyrrolo[2,3-d]pyrimidine-4-carboxamide] | 1 | 87 |
| CONC(=O)c1nc(-c2nn(Cc3ccccc3F)c3ncccc23)nc2c1C(C)(C)C(=O)N2 [Example 79, 2-[1-(2-fluorobenzyl)-1H-pyrazolo[3,4-b]pyridin-3-yl]-N-methoxy-5,5-dimethyl-6-oxo-6,7-dihydro-5H-pyrrolo[2,3-d]pyrimidine-4-carboxamide] | 0.1 | 30 |
| C[C@H](NC(=O)c1nc(-c2nn(Cc3ccccc3F)c3ncccc23)nc2c1C(C)(C)C(=O)N2)C(N)=O [Example 80, N-[(2S)-1-amino-1-oxopropan-2-yl]-2-[1-(2-fluorobenzyl)-1H-pyrazolo[3,4-b]pyridin-3-yl]-5,5-dimethyl-6-oxo-6,7-dihydro-5H-pyrrolo[2,3-d]pyrimidine-4-carboxamide] | 1 | 23 |
| CC1(C)C(=O)Nc2nc(-c3nn(Cc4ccccc4F)c4ncccc34)nc(C(=O)NC3(C4CC4)CC3)c21 [Example 82, N-[1,1′-bi(cyclopropyl)-1-yl]-2-[1-(2-fluorobenzyl)-1H-pyrazolo[3,4-b]pyridin-3-yl]-5,5-dimethyl-6-oxo-6,7-dihydro-5H-pyrrolo[2,3-d]pyrimidine-4-carboxamide] | 0.1 | 8.6 |
